Assay type in all cases: biochemical
Assay [1] addresses T1, MMP-1 (Homo sapiens, UniProt P03956).
T1 sequence (P03956 100-469): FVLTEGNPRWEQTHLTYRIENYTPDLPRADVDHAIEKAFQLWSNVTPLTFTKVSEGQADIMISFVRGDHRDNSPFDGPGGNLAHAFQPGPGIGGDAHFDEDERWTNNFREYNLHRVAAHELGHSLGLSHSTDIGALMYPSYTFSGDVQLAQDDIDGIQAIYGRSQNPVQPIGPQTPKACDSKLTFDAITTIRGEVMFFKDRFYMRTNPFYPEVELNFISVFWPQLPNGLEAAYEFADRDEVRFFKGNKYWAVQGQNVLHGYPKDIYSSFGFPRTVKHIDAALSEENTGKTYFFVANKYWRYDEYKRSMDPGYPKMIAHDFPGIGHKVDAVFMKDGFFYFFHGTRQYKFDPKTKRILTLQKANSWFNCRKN
Kind of assay: MMP-1 inhibitory action (Type I collagen Activity Measurement kit, FITC-labeled collagen type I). The note with it: Experimental Example 2; read-out: IC50 MMP1.

For assay [2], the target named is T2, Recombinant Human MMP-13 (Homo sapiens, UniProt P45452).
T2 construct: purchased R&D systems 511-MM
Kind of assay: MMP-13 inhibitory activity (MMP-13 specific fluorescent substrate with quencher). The note with it: Experimental Example 3; read-out: IC50 MMP13. A digest of the protocol:
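IC50 (μM) derived from % inhibition, normalised to wells without enzyme and without inhibitor, fluorescence read at 325/405 nm. Enzyme and compound preceded addition of the quenched 7-MCA…DPA substrate; Tris-HCl buffer, 25 °C for 1 h, acetic-acid stop.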

For assay [3], the target named is T3, aggrecanase-1 (Homo sapiens, UniProt O75173).
T3 sequence (O75173 213-837): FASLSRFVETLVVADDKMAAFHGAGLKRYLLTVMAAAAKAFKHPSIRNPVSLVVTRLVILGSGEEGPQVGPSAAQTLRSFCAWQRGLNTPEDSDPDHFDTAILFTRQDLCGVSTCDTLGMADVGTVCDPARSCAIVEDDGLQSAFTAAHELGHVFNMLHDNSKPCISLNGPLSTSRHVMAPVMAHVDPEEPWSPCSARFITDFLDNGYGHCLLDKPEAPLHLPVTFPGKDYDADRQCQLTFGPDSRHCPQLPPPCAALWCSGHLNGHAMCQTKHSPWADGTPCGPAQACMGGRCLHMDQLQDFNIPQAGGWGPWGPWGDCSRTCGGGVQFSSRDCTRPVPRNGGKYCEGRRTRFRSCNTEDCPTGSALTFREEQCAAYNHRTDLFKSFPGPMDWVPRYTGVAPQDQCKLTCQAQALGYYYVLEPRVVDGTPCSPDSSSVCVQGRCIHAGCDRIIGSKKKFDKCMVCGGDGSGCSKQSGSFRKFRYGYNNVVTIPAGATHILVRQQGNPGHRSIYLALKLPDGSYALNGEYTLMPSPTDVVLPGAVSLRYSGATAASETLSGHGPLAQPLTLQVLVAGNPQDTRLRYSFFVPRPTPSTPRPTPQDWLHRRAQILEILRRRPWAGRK
As to the kind of experiment: Aggrecanase-1 inhibitory action (Particle Assay, GAG release from aggrecan-containing polyacrylamide particles). The note with it: Experimental Example 1; read-out: IC50 AG1. A digest of the protocol: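 Readout was dimethylmethylene blue absorbance (595 nm) of glycosaminoglycan liberated into supernatant, calibrated with whale chondroitin sulfate. Substrate was aggrecan in polyacrylamide particles, digested 15 h at 37° C in Tris-HCl; TC50 (μM) derived from inhibition relative to no-enzyme and no-inhibitor controls.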

Some results are limits rather than exact numbers.

As usually defined, the IC50 is the concentration at which inhibition is half-maximal. Consider `CC1[C@H](c2ccccc2)[C@]1(NS(=O)(=O)c1ccc(-c2cc(C(F)F)on2)cc1)C(=O)O` (stereo partly drawn) [Example 2-401], for which the IC50 is under 1 µM in assay [1], under 0.1 µM in assay [2] and under 0.1 µM in assay [3].
With `COCc1cc(-c2ccc(S(=O)(=O)N[C@@]3(C(=O)O)C[C@]3(C)c3ccccc3)s2)no1` [Example 2-403], the IC50 is under 1 µM in assay [1], under 0.1 µM in assay [2] and under 1 µM in assay [3].
On to `COCc1cc(-c2ccc(S(=O)(=O)N[C@@]3(C(=O)O)C(C)[C@@H]3c3ccccc3)s2)no1` (stereo partly drawn) [Example 2-404], for which the concentration for half-maximal inhibition (IC50) was under 1 µM in assay [1], under 0.1 µM in assay [2] and under 0.1 µM in assay [3].
As for `O=C(O)COCC1(c2ccccc2)CC1(NS(=O)(=O)c1ccc(-c2ccc(Cl)cc2)s1)C(=O)O` (stereo not drawn) [Example 2-405], the IC50 is at least 10 µM in assay [1], under 1 µM in assay [2] and under 0.1 µM in assay [3].
In the case of `C[C@]1(c2ccccc2)C[C@@]1(NS(=O)(=O)c1ccc(-c2ccc(Cl)cc2F)s1)C(=O)O` [Example 2-406], the figures for the 50% inhibitory concentration (IC50) in assay [1], in assay [2] and in assay [3] were under 1 µM, under 0.1 µM and under 0.1 µM, respectively.
`CC1[C@H](c2ccccc2)[C@]1(NS(=O)(=O)c1ccc(-c2ccc(Cl)cc2F)s1)C(=O)O` (stereo partly drawn) [Example 2-407]: the results for the IC50 in assay [1], in assay [2] and in assay [3] were under 1 µM, under 0.1 µM and under 0.1 µM, respectively.
In the case of `CC(C)c1cc(-c2ccc(S(=O)(=O)N[C@@]3(C(=O)O)C(C)[C@@H]3c3ccccc3)s2)no1` (stereo partly drawn) [Example 2-408], the 50% inhibitory concentration (IC50) in assay [1] is under 1 µM; in assay [2] it was under 0.1 µM; in assay [3], under 0.1 µM.
For the compound `CCOC(=O)CSCC1(c2ccccc2)CC1(NS(=O)(=O)c1ccc(-c2cc(C(F)(F)F)on2)s1)C(=O)O` (stereo not drawn) [Example 2-409], the IC50 in assay [1] was under 1 µM; in assay [2], under 0.1 µM; in assay [3], under 1 µM.
As for `O=C(O)CSCC1(c2ccccc2)CC1(NS(=O)(=O)c1ccc(-c2cc(C(F)(F)F)on2)s1)C(=O)O` (stereo not drawn) [Example 2-410], the figures for the IC50 in assay [1], in assay [2] and in assay [3] were at least 1 µM, at least 1 µM and under 0.1 µM, respectively.
Turning to `O=C(O)C1(NS(=O)(=O)c2ccc(-c3ccc(Cl)cc3)s2)C2CCC(O)c3ccccc3C21` (stereo not drawn) [Example 2-411], the values for the IC50 in assay [1], in assay [2] and in assay [3] were under 1 µM, under 0.1 µM and under 0.1 µM, respectively.
`O=C(O)C1(NS(=O)(=O)c2ccc(-c3ccc(Cl)cc3)s2)C2CCC(O)c3ccccc3C21` (stereo not drawn) [Example 2-412]: the half-inhibitory concentration (IC50) is at least 1 µM in assay [1], under 0.1 µM in assay [2] and under 0.1 µM in assay [3].
Regarding `C[C@]1(c2ccccc2)C[C@@]1(NS(=O)(=O)c1ccc(-c2ccc(F)c(Cl)c2)s1)C(=O)O` [Example 2-413], the IC50 is at least 1 µM in assay [1], under 1 µM in assay [2] and under 0.1 µM in assay [3].
Regarding `C[C@]1(c2ccccc2)C[C@@]1(NS(=O)(=O)c1ccc(-c2ncc(Br)cn2)s1)C(=O)O` [Example 2-414], the IC50 is at least 1 µM in assay [1], under 1 µM in assay [2] and under 1 µM in assay [3].
In the case of `C[C@]1(c2ccccc2)C[C@@]1(NS(=O)(=O)c1ccc(-c2ccc(F)cn2)s1)C(=O)O` [Example 2-416], the IC50 in assay [1] was at least 1 µM; in assay [2], under 1 µM; in assay [3], under 1 µM.
Turning to `CC1[C@H](c2ccccc2)[C@]1(NS(=O)(=O)c1ccc(-c2cc(N(C)C)on2)s1)C(=O)O` (stereo partly drawn) [Example 2-419], the IC50 in assay [1] is under 1 µM; in assay [2] it was under 0.1 µM; in assay [3] it was under 0.1 µM.
`C[C@]1(c2ccccc2)C[C@@]1(NS(=O)(=O)c1ccc(-c2ccc(F)c(C#N)c2)s1)C(=O)O` [Example 2-420]: the IC50 in assay [1] was at least 10 µM; in assay [2] it was at least 1 µM; in assay [3], at least 1 µM.
Consider `C[C@]1(c2ccccc2)C[C@@]1(NS(=O)(=O)c1ccc(N2CCOCC2)s1)C(=O)O` [Example 2-421], for which the IC50 is at least 10 µM in assay [1], at least 1 µM in assay [2] and at least 1 µM in assay [3].
On to `C[C@]1(c2ccccc2)C[C@@]1(NS(=O)(=O)c1ccc(-c2cc(C(F)F)no2)s1)C(=O)O` [Example 2-422], for which the IC50 in assay [1] is under 1 µM; in assay [2], under 1 µM; in assay [3], under 0.1 µM.
Consider `CN(C)c1cc(-c2ccc(S(=O)(=O)N[C@@]3(C(=O)O)C[C@]3(C)c3ccccc3)s2)no1` [Example 2-423], for which the IC50 in assay [1] is under 1 µM; in assay [2], under 0.1 µM; in assay [3] it was under 1 µM.
Regarding `C#Cc1ccc(S(=O)(=O)N[C@@]2(C(=O)O)C(C)[C@@H]2c2ccccc2)s1` (stereo partly drawn) [Example 2-424], the IC50 in assay [1] was under 1 µM; in assay [2], under 1 µM; in assay [3], at least 10 µM.
Take `CC(=O)c1ccc(S(=O)(=O)N[C@@]2(C(=O)O)C(C)[C@@H]2c2ccccc2)s1` (stereo partly drawn) [Example 2-425]: the IC50 was at least 10 µM in assay [1], at least 1 µM in assay [2] and at least 10 µM in assay [3].
For the compound `CC1[C@H](c2ccccc2)[C@]1(NS(=O)(=O)N1CCN(c2ccc(Cl)cc2)CC1)C(=O)O` (stereo partly drawn) [Example 2-426], the IC50 in assay [1] was at least 1 µM; in assay [2], under 0.1 µM; in assay [3] it was under 1 µM.
Regarding `CC1[C@H](c2ccccc2)[C@]1(NS(=O)(=O)c1ccc(Br)s1)C(=O)O` (stereo partly drawn) [Example 2-427], the half-inhibitory concentration (IC50) in assay [1] was under 1 µM; in assay [2], at least 1 µM; in assay [3], at least 10 µM.
For the compound `CC1[C@H](c2ccccc2)[C@]1(NS(=O)(=O)N1CCN(c2ccc(C(F)(F)F)cc2)CC1)C(=O)O` (stereo partly drawn) [Example 2-428], the IC50 in assay [1] is at least 1 µM; in assay [2], under 0.1 µM; in assay [3], under 1 µM.
As for `COCCOCC1(c2ccccc2)CC1(NS(=O)(=O)c1ccc(-c2ccc(Cl)cc2)s1)C(=O)O` (stereo not drawn) [Example 2-429], the values for the IC50 in assay [1], in assay [2] and in assay [3] were at least 1 µM, under 1 µM and under 1 µM, respectively.
Regarding `CN1CCC2C(c3ccccc31)C2(NS(=O)(=O)c1ccc(-c2ccc(Cl)cc2)s1)C(=O)O` (stereo not drawn) [Example 2-430], the concentration for half-maximal inhibition (IC50) in assay [1] is at least 1 µM; in assay [2], under 0.1 µM; in assay [3], under 0.1 µM.
In the case of `O=C(O)C1(NS(=O)(=O)c2ccc(-c3ccc(Cl)cc3)s2)C2Cc3ccccc3C21` (stereo not drawn) [Example 2-431], the IC50 is at least 1 µM in assay [1], under 1 µM in assay [2] and under 1 µM in assay [3].
With `CSCC1(c2ccccc2)CC1(NS(=O)(=O)c1ccc(-c2ccc(Cl)cc2)s1)C(=O)O` (stereo not drawn) [Example 2-432], the values for the IC50 in assay [1], in assay [2] and in assay [3] were at least 1 µM, under 1 µM and under 0.1 µM, respectively.
The matching figures for `CC1[C@H](c2ccccc2)[C@]1(NS(=O)(=O)c1ccc(-c2cc(C3CC3)on2)s1)C(=O)O` (stereo partly drawn) [Example 2-433]: under 1 µM, under 0.1 µM and under 0.1 µM.
On to `C[C@]1(c2ccccc2)C[C@@]1(NS(=O)(=O)c1ccc(-c2ccc(Cl)c(F)c2)s1)C(=O)O` [Example 2-434], for which the half-maximal inhibitory concentration (IC50) in assay [1] was at least 1 µM; in assay [2], under 1 µM; in assay [3] it was under 0.1 µM.
For the compound `CC1[C@H](c2ccccc2)[C@]1(NS(=O)(=O)c1ccc(-c2ccc(Cl)c(F)c2)s1)C(=O)O` (stereo partly drawn) [Example 2-435], the IC50 in assay [1] is under 1 µM; in assay [2] it was under 0.1 µM; in assay [3], under 0.1 µM.
On to `CC1CCC(c2ccc(S(=O)(=O)N[C@@]3(C(=O)O)C[C@]3(C)c3ccccc3)cc2)CC1` (stereo partly drawn) [Example 2-436], for which the IC50 in assay [1] was at least 10 µM; in assay [2] it was at least 1 µM; in assay [3], at least 1 µM.
On to `O=C(O)C1(NS(=O)(=O)c2ccc(-c3cc(C(F)(F)F)on3)s2)C2CCC(O)c3ccccc3C21` (stereo not drawn) [Example 2-437], for which the values for the IC50 in assay [1], in assay [2] and in assay [3] were under 1 µM, under 0.1 µM and under 0.1 µM, respectively.
On to `O=C(O)C1(NS(=O)(=O)c2ccc(-c3cc(C(F)(F)F)on3)s2)C2CCC(O)c3ccccc3C21` (stereo not drawn) [Example 2-438], for which the IC50 is under 1 µM in assay [1], under 0.1 µM in assay [2] and under 0.1 µM in assay [3].

(Values after patent publication US20080261994A1, “CYCLOPROPANE COMPOUNDS AND PHARMACEUTICAL USE THEREOF” (Japan Tobacco Inc., priority 2003, published 2008).)
